Experimental data published in patent publication US20110189095A1, “CRKL TARGETING PEPTIDES” (The Board of Regents, of the University of Texas System, priority 2008, published 2011).
Blank lines part the entries; values can stand above or below the molecule they belong to. Ends that are not written are not given here.

Experiments:
[1] = tested on: human prostate cancer xenografts (DU145-derived); assay: Therapy in tumor-bearing mice (tumor volume); format: in vivo, nude mice; details: equimolar amounts, systemically administered, vs untreated or vehicle
Source text: Finally, a pilot pre-clinical trial that included four cohorts of size-matched tumor-bearing mice was designed and conducted (FIG. 11). Animals received the following reagents: (i) the synthetic PSI domain-mimic peptide, (ii) the synthetic PSI domain-mimic peptide linked to a pro-apoptotic peptidomimetic (Arap et al., 2004; Ellerby et al., 1999; Kolonin et al., 2004; Zurita et al., 2004) in order to induce targeted apoptosis upon receptor-mediated internalization, (iii) the synthetic pro-apoptotic peptidomimetic alone, or (iv) vehicle alone. All peptides or peptidomimetics were administered at equimolar concentrations.
DU145 tumor-bearing mice were size-matched and divided into individual cohorts (n=4 mice per group). The tumor-homing peptide […] (SEQ ID NO:1) was synthesized fused with the proapoptotic motif D(KLAKLAK)2. Unconjugated peptide […] (SEQ ID NO:1) or D(KLAKLAK)2 served as controls. The synthetic peptides were systemically administered and tumor volumes measured as described (Arap et al., 1998; Arap et al., 2004).

[2] = tested on: KS1767 and DU145 human tumor xenografts and EF43-FGF4 mouse mammary carcinoma; assay: In vivo homing of targeted or control phage in mice bearing different tumor types; details: systemic administration; KS1767, DU145 and EF43-FGF4 models
Procedure: The tumor targeting attributes of CRKL-binding phage in tumor-bearing mice was evaluated next. First, phage constructs displaying either the selected CRKL-binding peptide or a panel of control (mutant or scrambled) peptides were designed and produced. Phage clones were tested in human tumor xenografts (Kaposi sarcoma KS1767 cells and prostate carcinoma DU145 cells) and an isogenic mouse tumor model (EF43-FGF4 mammary carcinoma).
In vivo targeting experiments with phage were performed as described (Hajitou et al., 2006; Arap et al., 1998; Arap et al., 2004; Kolonin et al., 2004; Marchio et al., 2004). Animals used in experiments were: Male nude mice bearing human DU145 xenografts or female nude mice with human Kaposi sarcoma KS1767-derived xenografts subcutaneously and immunocompetent Balb/c female mice bearing EF43-FGF4-derived breast tumors orthotopically in the mammary fat pad. Briefly, mice bearing tumors (˜8 mm) were anesthetized and injected intravenously via tail vein with 5×10^10 T.U. per mouse of wild-type […] (SEQ ID NO:1)-phage, or negative controls: fd-tet phage (insertless) and scrambled […] (SEQ ID NO:26)-phage, […] (SEQ ID NO:27)-phage, […] (SEQ ID NO:29)-phage, […] (SEQ ID NO:30)-phage or mutants […] (SEQ ID NO:25)-phage and […] (SEQ ID NO:28)-phage. Cohorts of two mice with size-matched tumors received each set of phage clones. After 24 hours, tumors were dissected from each mouse and phage recovered by bacterial infection and normalized by weight of tissue. The experiments were repeated twice for each tumor model. […] The fd phage served a negative control and the RGD-4C (Hajitou et al., 2006; Arap et al., 1998) served as a positive control. Only minimal background apoptosis (<1% of the total cells) were detected by TUNEL staining (Promega) on paraffin-embedded tumor tissue sections.

CRKL secretion = CRKL secretion inhibition study (immunoprecipitation from serum-free medium); format: cell-based; details: cells incubated with compound in serum-free medium for 9 hours
Procedure: Cells were synchronized for 24-48 hours in RPMI serum-free medium followed by a spin and filtration through a 0.22 μm filter, and pre-absorbed to control antibodies. An equal volume of PBS was added to the recovered supernatant prior to immunoprecipitating with the appropriate antibodies. Brefeldin A, glybenclamide, and thapsigargin were used for secretion inhibition studies. Cells were incubated with the compounds in serum-free medium for 9 hours prior to immunoprecipitation with the appropriate antibodies. No detergents were used in the immunoprecipitation studies. By using the methodology described above, CRKL is found in a free soluble state and not in vesicles.

rCRKL-SH3 (C) domain [3] = target: T1, rCRKL-SH3 (C) domain (Homo sapiens, UniProt P46109); assay: Inhibition of rCRKL-SH3 (C) domain binding to coated tumor-homing peptide; details: inhibitor pre-incubated with rCRKL-SH3 (C)
T1 construct: cDNAs corresponding to each of the SH domains were PCR-amplified and cloned into the Sac I and Xho I restriction sites; His-tag; made in house; host or cells: E. coli BL21
T1 sequence (P46109 235-296 limits assumed): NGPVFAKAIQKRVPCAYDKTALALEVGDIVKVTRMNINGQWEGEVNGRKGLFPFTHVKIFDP
Procedure: (§1) Synthetic tumor-homing peptide ([…]; SEQ ID NO:1) or PSI-derived peptide (NSTFLQEGMPTSA; SEQ ID NO:23) were coated on microtiter plates followed by blocking, and washing. The following recombinant His-tag proteins were added to the coated plates: rCRKL, rCRKL-SH2 domain, rCRKL-SH3 (N) domain, and rCRKL-SH3 (C) domain. An unrelated control protein (α2-Heremans-Schmid glycoprotein; AHSG) served as a negative control. The mixtures were incubated, washed, and labeled with the appropriate antibodies. Secondary antibodies conjugated to horse-radish peroxidase (HRP) were added followed by adding TMB substrate (Calbiochem), and analyzed by an automated ELISA reader (Bio-Tek). To determine the inhibitory activity of the tumor-homing peptide, the PSI-derived peptide, or the phage clone displaying the corresponding tumor-homing peptide were incubated with the rCRKL-SH3 (C) domain. Unrelated cyclic peptide sequences and insertless phage (fd-tet) served as negative controls. The admixtures were incubated and added to wells coated with the tumor-homing peptide. After incubation, the wells were washed, labeled with the appropriate antibodies, and processed as above.

rCRKL = target: T2, rCRKL (Homo sapiens, UniProt P46109); assay: Peptide binding assay with recombinant His-tag proteins (ELISA); details: peptide coated on microtiter plates
T2 construct: The open reading frame of full-length CRKL cDNA (Invitrogen) was PCR-amplified and cloned in a pET28a (Novagen) expression vector; His-tag; made in house; host or cells: E. coli BL21
T2 sequence (P46109 whole entry): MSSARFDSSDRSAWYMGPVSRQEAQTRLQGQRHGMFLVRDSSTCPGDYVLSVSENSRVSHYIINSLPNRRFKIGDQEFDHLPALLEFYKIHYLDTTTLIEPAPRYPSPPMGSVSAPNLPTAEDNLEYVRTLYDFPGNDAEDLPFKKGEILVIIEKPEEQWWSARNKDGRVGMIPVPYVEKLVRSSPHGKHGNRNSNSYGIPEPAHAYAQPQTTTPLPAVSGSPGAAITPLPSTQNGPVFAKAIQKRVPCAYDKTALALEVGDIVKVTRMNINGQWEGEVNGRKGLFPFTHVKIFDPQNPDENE
Procedure: as §1

rCRKL-SH3 (C) domain [4] = target: T1, rCRKL-SH3 (C) domain; assay: as above; details: peptide coated on microtiter plates
Procedure: as §1

rCRKL-SH3 (N) domain = target: T3, rCRKL-SH3 (N) domain (Homo sapiens, UniProt P46109); assay: as above; details: peptide coated on microtiter plates
T3 construct: cDNAs corresponding to each of the SH domains were PCR-amplified and cloned into the Sac I and Xho I restriction sites; His-tag; made in house; host or cells: E. coli BL21
T3 sequence (P46109 123-183 limits assumed): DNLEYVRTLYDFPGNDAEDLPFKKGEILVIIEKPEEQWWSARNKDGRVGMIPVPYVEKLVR
Procedure: as §1

DU145 cells = assay: Peptide internalization assay (WST-1 cell viability, annexin-V staining); format: cell-based, human
Procedure: The internalization capability of the tumor-homing peptide fused through a glycinylglycine bridge to a pro-apoptotic sequence was tested as described Arap et al., 2004; Ellerby et al., 1999; Kolonin et al., 2004; Zurita et al., 2004). The conjugated tumor-homing peptide, […] (SEQ ID NO:67)-D(KLAKLAK)2 or the untargeted control peptide D(KLAKLAK)2 were synthesized and increasing equimolar peptide concentrations were added to the DU145 cells. Cell viability was assayed by the WST-1 reagent (Roche) and annexin-V staining for apoptosis (Zurita et al., 2004; Cardo-Vila et al., 2003). For tumor-homing phage localization studies, cells were incubated with 10^9 T.U. tumor-homing ([…]; SEQ ID NO:1) or a negative control (fd-tet) phage for 6 and 24 hours. Wells were washed with 20 mM glycine to remove non-specific cell surface bound phage and then fixed with 4% paraformaldehyde. The non-permeabilized cells were incubated with rabbit anti-fd bacteriophage antibody (Sigma) for 2 hours at room temperature followed by 1 hour incubation with Cy3-labeled anti-rabbit IgG antibody (Jackson ImmunoResearch). Cells were again fixed with 4% paraformaldehyde and mounted in the presence of DAPI (Vector Laboratories) and images were acquired with an Olympus fluorescence microscope.

[5] = target: CRKL binding to β1 integrin (Homo sapiens, UniProt P46109); assay: Protein-protein interaction between CRKL and β1 integrin, inhibition assay
Chain of CRKL binding to β1 integrin (P46109 whole entry): as the sequence (P46109 whole entry) above
Procedure: Phage binding assays on purified proteins were carried out as described (Giordano et al. 2001). Recombinant proteins were coated on microtiter wells as previous described (Cardo-Vila et al., 2003; Smith and Scott, 1993). Briefly, proteins were immobilized on microtiter wells overnight at 4° C. 50 μl of 1 μg/ml in PBS. Wells were washed twice with PBS, blocked with PBS containing 3% BSA for 2 hours at room temperature, and incubated with 10^9 T.U. wild-type tumor-homing phage ([…]; SEQ ID NO:1), scrambled phage ([…] (SEQ ID NO:26), […] (SEQ ID NO:27), […] (SEQ ID NO:29), […] (SEQ ID NO:30)), mutant phage ([…] (SEQ ID NO:25), […] (SEQ ID NO:28)), PSI-derived cyclic phage (CNSTFLQEGMPTSAC; SEQ ID NO:23) or fd-tet phage in 50 μl of PBS containing 1.5% BSA. After 1 hour at room temperature, wells were washed ten times with PBS and phage were recovered by bacterial infection. ELISA with polyclonal anti-CKRL confirmed the presence and concentration of the CKRL recombinant proteins on the wells. […] After 3 hours, binding of CKRL to integrins was detected by using an anti-CKRL antibody followed by an HRP-conjugated anti-rabbit IgG. […]

Molecule: D(KLAKLAK)2 [reference compound]
- tumor growth / tumor volume [1]: no differences in tumor volume

Molecule: YRCETDSPHEFHLWNTFCAM
- tumor homing / tumor targeting [2]: no tumor targeting activity

Molecule: YRFCTSPFHEWHLENTDMCA
- tumor homing / tumor targeting [2]: no tumor targeting

Molecule: COc1ccc(Cl)cc1C(=O)NCCc1ccc(S(=O)(=O)NC(=O)NC2CCCCC2)cc1 [glybenclamide]
- CRKL secretion / release (CRKL secretion): does prevent

Molecule: C[C@H]1CCC/C=C/[C@@H]2C[C@H](O)C[C@H]2[C@H](O)/C=C/C(=O)O1 [brefeldin A]
- CRKL secretion / release (CRKL secretion): do not appear to inhibit

- inhibition of binding of the tumor-homing peptide to rCRKL-SH3 (C) domain (rCRKL-SH3 (C) domain [3]): inhibited
- binding to rCRKL (rCRKL): bound
- binding to rCRKL-SH3 (C) domain (rCRKL-SH3 (C) domain [4]): bound
- binding to rCRKL-SH3 (N) domain (rCRKL-SH3 (N) domain): bound
Molecule: NSTFLQEGMPTSA (listed as Homo sapiens) [synthetic peptide derived from the native PSI domain of β1 integrin, residues 50 to 62]

Molecule: YRCTLNSPAAAEDMTHECHA
- tumor homing / tumor targeting [2]: no tumor targeting activity

Molecule: YRCETDSPHEFHLWNTMCAF
- tumor homing / tumor targeting [2]: no tumor targeting activity

Molecule: YRECTDSPHEFHLWNTMCAF
- tumor homing / tumor targeting [2]: no tumor targeting

Molecule: YRCTLNSPFFWEDMTHECHAGG (SEQ ID NO:67)-D(KLAKLAK)2
- tumor growth / tumor volume [1]: Markedly reduced tumor growth
- tumor growth / tumor volume ([1]; listed as targeted pro-apoptotic peptidomimetic): significantly inhibited
- programmed cell death (annexin-V staining) (DU145 cells; DU145 cells): Programmed cell death was confirmed
- internalization (DU145 cells; DU145 cells, measured by cell viability and annexin-V): enables internalization
- cell killing (cell viability, WST-1) (DU145 cells; increasing equimolar concentrations, control D(KLAKLAK)2): Targeted cell killing relative to controls

Molecule: C/C=C(/C)C(=O)O[C@H]1C(C)=C2[C@H]([C@@H]1OC(=O)CCCCCCC)[C@@](C)(OC(C)=O)C[C@H](OC(=O)CCC)[C@@]1(O)[C@H]2OC(=O)[C@@]1(C)O [thapsigargin]
- CRKL secretion / release (CRKL secretion): do not appear to inhibit

- inhibition of CRKL binding to β1 integrin ([5]; up to 800 ηm): concentration-dependent inhibition
- IC50 ([5]; wells coated with α5β1 integrin): 20 nM
Molecule: gst-PSI: recombinant gst fusion protein of the entire PSI domain of β1 integrin (CLKANAKSCGECIQAGPNCGWCTNSTFLQEGMPTSARCDDLEALKKKGC; cysteine pairing not given here; also: N-terminal GST fusion, not written)

Molecule: YRCTLNSAFFWEDMTHECHA
- tumor homing / tumor targeting [2]: no tumor targeting
